Four compounds from ChEMBL document CHEMBL1201862, “PubChem BioAssay data set” (2004) can be followed below.

Activity calls are given as the source filed them.

Assay [1] deals with T1, Alkaline phosphatase, tissue-nonspecific isozyme (Homo sapiens, UniProt P05186).
T1 sequence (P05186 whole entry): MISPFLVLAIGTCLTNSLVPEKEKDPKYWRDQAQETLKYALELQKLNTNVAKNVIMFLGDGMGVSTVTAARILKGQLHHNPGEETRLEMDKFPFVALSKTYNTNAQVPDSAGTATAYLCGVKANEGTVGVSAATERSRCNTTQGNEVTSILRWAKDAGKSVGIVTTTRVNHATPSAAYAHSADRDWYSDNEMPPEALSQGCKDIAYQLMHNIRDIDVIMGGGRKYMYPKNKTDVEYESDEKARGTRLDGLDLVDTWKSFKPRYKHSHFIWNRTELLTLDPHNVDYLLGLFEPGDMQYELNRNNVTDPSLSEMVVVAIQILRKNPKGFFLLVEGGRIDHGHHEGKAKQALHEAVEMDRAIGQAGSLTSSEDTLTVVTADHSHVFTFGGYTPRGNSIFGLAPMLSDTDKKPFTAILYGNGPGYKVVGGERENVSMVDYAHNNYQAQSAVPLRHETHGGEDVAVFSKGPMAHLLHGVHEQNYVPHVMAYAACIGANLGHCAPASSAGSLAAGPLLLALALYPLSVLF
The assay is described as follows: human TNAP enzyme inhibitors, SAR follow-up, biochemical, luminescent, dose response (AID 1056).

The target in assay [2] is Alkaline phosphatase, placental type (Homo sapiens, UniProt P05187). The assay is described as follows: PLAP enzyme inhibitors, confirmation, biochemical, luminescence (AID 1512). Type of assay: functional.
Assay [3] addresses Glyceraldehyde-3-phosphate dehydrogenase (Homo sapiens, UniProt P04406).
In the next assay the target is Hexokinase (Trypanosoma brucei, UniProt Q38C41). The assay is described as follows: Confirmation assay for inhibitors of Trypanosoma brucei hexokinase 1-Analogue-first series. [Related pubchem assays (depositor defined):AID1430, AID1632, AID2516, AID2560, AID2579, AID2600, AID449725, AID492951]. Type of assay: functional.
The next assay concerns the target T2, Coagulation factor XII (Homo sapiens, UniProt P00748).
T2 sequence (P00748 whole entry): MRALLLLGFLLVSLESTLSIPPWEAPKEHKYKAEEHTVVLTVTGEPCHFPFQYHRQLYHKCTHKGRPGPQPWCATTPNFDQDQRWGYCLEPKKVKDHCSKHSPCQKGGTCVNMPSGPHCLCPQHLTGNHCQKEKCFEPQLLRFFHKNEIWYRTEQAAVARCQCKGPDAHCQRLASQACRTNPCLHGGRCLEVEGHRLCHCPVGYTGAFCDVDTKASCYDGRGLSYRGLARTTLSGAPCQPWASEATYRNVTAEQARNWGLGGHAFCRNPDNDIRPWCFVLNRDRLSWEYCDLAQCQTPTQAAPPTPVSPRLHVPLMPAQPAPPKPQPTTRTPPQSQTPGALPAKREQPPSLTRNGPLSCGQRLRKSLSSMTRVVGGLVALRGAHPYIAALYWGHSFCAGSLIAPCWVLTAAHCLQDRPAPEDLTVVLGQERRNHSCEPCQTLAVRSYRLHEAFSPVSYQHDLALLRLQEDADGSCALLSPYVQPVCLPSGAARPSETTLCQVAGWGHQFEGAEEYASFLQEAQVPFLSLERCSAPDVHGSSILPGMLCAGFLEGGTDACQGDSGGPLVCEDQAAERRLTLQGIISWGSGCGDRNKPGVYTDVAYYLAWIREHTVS
The assay is described as follows: FXIIa inhibitor potency, concentration-response, biochemical (AID 716). Type of assay: functional.

A short description of assay [4]: growth suppression of PTEN-null colon cells, dose response, cell-based, HCT116 PTEN knockout (AID 1047).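 Note: HCT116 colon tumor cells with PTEN knocked out; cells exposed to compound for 60 hours before readout; potency for loss of cell viability measured by luminescence.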 It counts as functional.
Assay [5] in a line: HEK293 cell cytotoxicity, dose response, cytotoxicity control, plate reader, cherry-picked samples (AID 743446). Type of assay: functional, cell-based.
Assay [6] is described as follows: growth suppression of beta-catenin-knockout colon cells, dose response, cell-based, HCT116, human colon tumor (AID 1045).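 Note: HCT116 colon tumor cells with beta catenin knocked out; cells exposed to compound for 60 hours.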 It counts as functional.
Assay [7] has as its target Sphingosine 1-phosphate receptor 1 (Homo sapiens, UniProt P21453). It counts as functional.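 Note: Tango beta-arrestin reporter U2OS cells stimulated with S1P near its EC80; inhibitor potency meaning antagonism of receptor activation by the natural agonist.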
The nature of assay [8]: MC4R antagonists, dose response, counter-screen for LGR2 antagonist project, cell-based, plate reader, cherry pick (AID 743444).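 Note: transfected HEK 293 cells stimulated with alpha-MSH peptide; potency of inhibitors of the alpha-MSH evoked signal.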 Type of assay: functional.
Assay [9] in a line: Fluorescence-based cell-based high throughput dose response assay for inhibitors of the interaction of nucleotide-binding oligomerization domain containing 2 (NOD2) and the receptor-interacting serine-threonine kinase 2 (RIPK2). Type of assay: functional. Conditions: Homo sapiens.
Assay [10] has as its target T3, Sphingosine 1-phosphate receptor 4 (Homo sapiens, UniProt O95977).
T3 sequence (O95977 whole entry): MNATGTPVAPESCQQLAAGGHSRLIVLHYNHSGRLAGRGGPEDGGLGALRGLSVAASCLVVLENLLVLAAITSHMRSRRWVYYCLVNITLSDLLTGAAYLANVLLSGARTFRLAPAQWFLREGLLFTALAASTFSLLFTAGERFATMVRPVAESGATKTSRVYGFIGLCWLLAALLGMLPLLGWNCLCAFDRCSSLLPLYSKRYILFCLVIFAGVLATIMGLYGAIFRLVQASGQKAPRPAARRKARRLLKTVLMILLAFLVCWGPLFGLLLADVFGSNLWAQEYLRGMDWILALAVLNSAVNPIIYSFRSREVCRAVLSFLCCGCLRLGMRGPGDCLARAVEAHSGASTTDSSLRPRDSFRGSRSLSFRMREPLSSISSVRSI
The assay is described as follows: Fluorescence dose response cell-based high throughput screening assay for antagonists of the Sphingosine 1-Phosphate Receptor 4 (S1P4). [Related pubchem assays: 1524 (Confirmation in triplicates.), 1510 (Primary screen.)]. It counts as functional.

The target of assay [11] is Photoreceptor-specific nuclear receptor (Homo sapiens, UniProt Q9Y5X4). It counts as functional, cell-based.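 Note: CHO-S cells with Gal4-NCOR and VP16-NR2E3 two-hybrid luciferase reporter.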
In assay [12] the target is T3, Sphingosine 1-phosphate receptor 4. The assay is described as follows: Late stage fluorescence dose response cell-based screening assay for antagonists of the Sphingosine 1-Phosphate Receptor 4 (S1P4). [Related pubchem assays: 1524 (Confirmation screen (S1P4 antagonists).), 1510 (Primary screen (S1P4 antagonists).), 1853 (Summary AID (S1P4 antagonists).), 1692 (Dose response screen (S1P4 antagonists).)]. Type of assay: functional.

The test system of another assay is INS1. The experiment in a line: beta cell apoptosis inhibitors, cytokine rescue, dose response, luminescence, retest (AID 449756).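 Note: cell death triggered by IL-1 beta plus TNF-alpha plus IFN-gamma mixture; protective hits raise ATP signal compared with cytokine alone wells.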 Type of assay: functional, cell-based. The note with it: Rattus norvegicus.
Assay [13] is described as follows: inhibitors of PGC1a acetylation in cells, dose response, cell-based, cherry-picked samples (AID 720514).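 Note: potency may reflect raised or lowered acetylation signal.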 It counts as functional.
A short description of assay [14]: HepG2 cell cytotoxicity, dose response, cytotoxicity control, plate reader, cherry-pick, antagonist series (AID 743416). It counts as functional, cell-based.
In a further assay the target is Beta Lactamase (Pseudomonas aeruginosa, UniProt Q932Y6). The assay is described as follows: beta-lactamase reporter inhibitor potency, dose response, artefact control for NOD2-RIPK2 interaction inhibitor project, BLA reporter cells, FRET fluorescence (AID 651552). It counts as functional, cell-based.
Assay [15] can be described thus: Luminescence Cell-Based Dose Confirmation HTS to Identify Activators of 5'UTR Stem-Loop Driven Alpha-Synuclein mRNA Translation in H4 Neuroglioblastoma Cells. [Related pubchem assays: 1829 (Project Summary), 1814 (Primary HTS)]. It counts as functional.
For the next assay, the system named is H4. The assay is described as follows: Luminescence Cell-Based Dose Response HTS to Identify Activators of 5'UTR Stem-Loop Driven Prion Protein mRNA Translation in H4 Neuroglioblastoma Cells. [Related pubchem assays: 1829 (Project Summary), 1814 (Primary HTS)]. Conditions: Homo sapiens. Type of assay: functional.
Assay [16] is described as follows: LGR2 antagonists, dose response, cell-based, HEK293, CRE-luciferase reporter, cherry pick, set 2 (AID 743343).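 Note: transfected cells were stimulated with diluted bursicon conditioned medium after compound addition.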 Type of assay: functional.
A further assay has as its target Paired box protein Pax-8 (Homo sapiens, UniProt Q06710). The assay is described as follows: inhibitors of PAX8-driven TPO luciferase reporter, dose response, RMG-I cells, cherry-pick (AID 687027).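 Note: luciferase reporter driven by Pax8 target thyroperoxidase promoter measured by SteadyGlo luminescence.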 Type of assay: functional, cell-based.
In assay [17] the target is G-protein coupled receptor 55 (Homo sapiens, UniProt Q9Y2T6). The assay is described as follows: GPR55 agonists via beta-arrestin recruitment, primary screen, imaging, U2OS cells, beta-arrestin-GFP redistribution (AID 1961). Type of assay: functional.
The nature of assay [18]: A549 cell cytotoxicity, dose response, cytotoxicity control, plate reader, cherry-pick, antagonist series (AID 743412). It counts as functional, cell-based.
The nature of assay [19]: Luminescence Cell-Based Dose Response HTS to Identify Activators of Luciferase Translation or Activity in H4 […] Cells. [Related pubchem assays: 1829 (Project Summary), 1814 (Primary HTS)]. It counts as functional.

Photoreceptor-specific nuclear receptor, sequence (Q9Y5X4 whole entry, the tested form may be a part): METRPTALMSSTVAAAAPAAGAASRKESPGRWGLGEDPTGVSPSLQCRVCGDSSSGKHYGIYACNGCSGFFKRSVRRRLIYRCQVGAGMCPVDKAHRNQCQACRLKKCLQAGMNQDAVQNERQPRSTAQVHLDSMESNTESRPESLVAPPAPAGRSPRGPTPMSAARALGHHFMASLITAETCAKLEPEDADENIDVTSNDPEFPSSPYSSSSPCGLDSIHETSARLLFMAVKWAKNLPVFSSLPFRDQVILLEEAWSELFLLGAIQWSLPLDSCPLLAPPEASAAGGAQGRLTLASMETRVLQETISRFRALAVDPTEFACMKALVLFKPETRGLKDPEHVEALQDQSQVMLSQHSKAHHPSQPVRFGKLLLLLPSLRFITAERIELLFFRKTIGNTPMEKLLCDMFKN
Beta Lactamase, sequence (Q932Y6 whole entry): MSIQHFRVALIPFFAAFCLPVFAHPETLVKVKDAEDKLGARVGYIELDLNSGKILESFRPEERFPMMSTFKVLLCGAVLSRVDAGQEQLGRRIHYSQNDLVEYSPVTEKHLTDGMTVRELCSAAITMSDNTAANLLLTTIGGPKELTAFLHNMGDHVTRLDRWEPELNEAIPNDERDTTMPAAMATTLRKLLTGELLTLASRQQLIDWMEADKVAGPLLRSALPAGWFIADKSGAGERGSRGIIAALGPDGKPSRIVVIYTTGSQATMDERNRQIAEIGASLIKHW
Hexokinase, sequence (Q38C41 whole entry): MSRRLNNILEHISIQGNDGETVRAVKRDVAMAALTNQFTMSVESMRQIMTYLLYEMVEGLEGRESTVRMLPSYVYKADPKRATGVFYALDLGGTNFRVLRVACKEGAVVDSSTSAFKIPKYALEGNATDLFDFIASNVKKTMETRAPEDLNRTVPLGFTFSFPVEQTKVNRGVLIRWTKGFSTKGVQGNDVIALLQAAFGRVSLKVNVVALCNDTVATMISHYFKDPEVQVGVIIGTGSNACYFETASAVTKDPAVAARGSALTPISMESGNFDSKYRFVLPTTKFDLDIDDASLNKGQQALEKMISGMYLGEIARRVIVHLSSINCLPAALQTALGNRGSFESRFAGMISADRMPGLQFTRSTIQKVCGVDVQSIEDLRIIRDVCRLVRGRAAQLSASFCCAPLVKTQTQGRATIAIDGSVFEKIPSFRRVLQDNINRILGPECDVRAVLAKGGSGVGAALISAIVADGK
Glyceraldehyde-3-phosphate dehydrogenase, sequence (P04406 whole entry): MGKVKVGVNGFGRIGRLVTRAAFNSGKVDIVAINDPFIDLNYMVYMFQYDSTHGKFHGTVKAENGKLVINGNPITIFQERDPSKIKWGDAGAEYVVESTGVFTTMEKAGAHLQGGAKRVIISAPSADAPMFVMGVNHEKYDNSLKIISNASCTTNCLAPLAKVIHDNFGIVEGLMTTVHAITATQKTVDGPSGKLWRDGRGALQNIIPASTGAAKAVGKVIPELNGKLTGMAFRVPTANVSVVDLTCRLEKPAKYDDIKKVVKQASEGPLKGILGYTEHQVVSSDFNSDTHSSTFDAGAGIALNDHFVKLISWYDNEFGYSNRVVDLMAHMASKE
Paired box protein Pax-8, sequence (Q06710 whole entry): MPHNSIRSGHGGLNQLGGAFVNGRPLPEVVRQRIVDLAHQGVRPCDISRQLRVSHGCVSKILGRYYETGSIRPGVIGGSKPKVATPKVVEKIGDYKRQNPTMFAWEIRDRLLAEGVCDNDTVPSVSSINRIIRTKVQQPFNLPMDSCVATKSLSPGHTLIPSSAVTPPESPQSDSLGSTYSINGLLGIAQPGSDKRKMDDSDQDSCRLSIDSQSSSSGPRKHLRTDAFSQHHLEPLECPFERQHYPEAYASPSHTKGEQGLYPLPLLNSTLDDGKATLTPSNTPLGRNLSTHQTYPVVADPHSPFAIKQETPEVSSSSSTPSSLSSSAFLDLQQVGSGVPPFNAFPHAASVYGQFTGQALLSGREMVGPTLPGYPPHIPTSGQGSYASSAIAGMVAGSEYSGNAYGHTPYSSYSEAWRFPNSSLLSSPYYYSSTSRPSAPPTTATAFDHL
Sphingosine 1-phosphate receptor 1, sequence (P21453 whole entry): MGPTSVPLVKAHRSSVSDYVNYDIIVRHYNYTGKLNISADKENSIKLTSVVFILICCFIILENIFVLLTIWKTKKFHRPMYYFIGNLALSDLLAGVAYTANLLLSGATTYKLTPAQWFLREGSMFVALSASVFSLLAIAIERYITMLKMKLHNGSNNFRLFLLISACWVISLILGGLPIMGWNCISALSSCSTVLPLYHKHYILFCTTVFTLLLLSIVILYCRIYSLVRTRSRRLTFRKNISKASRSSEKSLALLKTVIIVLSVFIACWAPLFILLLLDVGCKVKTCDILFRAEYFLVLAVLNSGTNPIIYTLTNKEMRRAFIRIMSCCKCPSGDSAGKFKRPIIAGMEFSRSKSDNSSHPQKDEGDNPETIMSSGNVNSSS
G-protein coupled receptor 55, sequence (Q9Y2T6 whole entry): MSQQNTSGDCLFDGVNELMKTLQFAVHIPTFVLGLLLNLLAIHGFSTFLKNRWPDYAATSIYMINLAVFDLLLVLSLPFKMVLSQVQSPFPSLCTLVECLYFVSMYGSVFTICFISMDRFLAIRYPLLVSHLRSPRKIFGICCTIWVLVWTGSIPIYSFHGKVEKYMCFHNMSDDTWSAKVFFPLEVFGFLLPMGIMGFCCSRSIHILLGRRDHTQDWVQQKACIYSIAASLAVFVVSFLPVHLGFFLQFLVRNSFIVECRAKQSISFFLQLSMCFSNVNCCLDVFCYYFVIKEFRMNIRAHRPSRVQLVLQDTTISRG
Alkaline phosphatase, placental type, sequence (P05187 whole entry): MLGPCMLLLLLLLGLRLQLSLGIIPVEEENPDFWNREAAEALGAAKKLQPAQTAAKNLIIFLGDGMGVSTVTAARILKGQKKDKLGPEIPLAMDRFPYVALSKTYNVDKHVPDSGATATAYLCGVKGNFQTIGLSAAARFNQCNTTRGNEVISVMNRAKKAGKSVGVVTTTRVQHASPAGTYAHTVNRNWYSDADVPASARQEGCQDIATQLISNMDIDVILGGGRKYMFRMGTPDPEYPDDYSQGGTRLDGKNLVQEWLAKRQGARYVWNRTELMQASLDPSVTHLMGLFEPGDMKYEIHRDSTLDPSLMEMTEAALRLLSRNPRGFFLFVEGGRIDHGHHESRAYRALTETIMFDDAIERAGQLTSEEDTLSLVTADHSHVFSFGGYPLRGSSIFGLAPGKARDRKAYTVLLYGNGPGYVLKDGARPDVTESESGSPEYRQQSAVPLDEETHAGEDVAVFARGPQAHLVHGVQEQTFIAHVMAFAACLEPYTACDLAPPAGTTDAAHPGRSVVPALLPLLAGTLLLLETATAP

Regarding `COc1cccc(Cc2nc(N)nn2-c2ccccc2)c1`, the IC50 was > 100 µM (inactive) in assay [1], > 100 µM (inactive) in assay [2] and > 100 µM (not active) in [3].
Consider `CCc1ccc(C(=O)Nc2cc(Br)ccc2C(=O)O)cc1`, for which the IC50 on Hexokinase is 5.45 µM (active).
In the case of `CC(C)(C)NC(=O)CN(C(=O)C1CSC(=O)C1)c1ccc2c(c1)OCCO2` (stereo not given), the IC50 on Coagulation factor XII is > 50 µM (inactive).
`O=C(NCc1cccnc1)/C(=C\c1ccc(-c2ccc(Cl)c(Cl)c2)o1)S(=O)(=O)c1ccccc1`: the EC50 in assay [4] is 2.92 µM (active); in assay [6] it was 2.39 µM (active); in assay [15], > 120 µM (not active); with H4, > 120 µM (not active); in [17], 1.61 µM (active); in assay [19] it was > 120 µM (not active). Also, the AC50 is 8.51 µM (active) in [5]; 7.86 µM (active) in assay [8]; 3.63 µM (active) in the assay on INS1; 3.52 µM (active) in assay [13]; 7.96 µM (active) in [14]; 8.45 µM (active) in [16]. The AC50 at Paired box protein Pax-8 is 4.66 µM (active); in assay [18], 6.6 µM (active). Besides, the IC50 in [7] was 8.81 µM (active); in assay [9] it was 4.34 µM (active); in [10] it was 0.965 µM (active); in [11], 4.08 µM (active); in [12], > 50 µM (not active); at Beta Lactamase it was 26.7 µM (inactive).
